Reference: patent US20160280743A1, “BACTERIAL MUTANTS AND METHODS OF USE” (priority 2015, published 2016)
Converted amounts (≈) assume the structure as drawn. Like-named read-outs stand apart in the source and are kept apart here.

Experiments:
[1] = test system: P. aeruginosa Δ3-Pore (GKCW116, FhuAΔC/Δ4L pore); test: MIC, two-fold broth dilution, P. aeruginosa Δ3-Pore; settings: for MIC Δ3 Pore: P. aeruginosa Δ3-Pore, 0.1 mM IPTG, LB, 37° C., 16 h
Procedure: (§3) Susceptibilities of E. coli and P. aeruginosa cells to different classes of antibiotics were determined by two-fold broth dilution method [1] with following modifications. Cells were grown in Luria-Bertani (LB) broth (tryptone 10 g/L, yeast extract 5 g/L and NaCl 5 g/L) with appropriate selection markers as needed, at 37° C. with shaking at 200 rpm. When needed, at OD600˜0.3, either L-arabinose (final concentration 0.1%) or IPTG (final concentration 0.1 mM) were added to induce the expression of the pore and cells were further incubated until OD600 reached 1.0. MICs of various antimicrobial agents were measured in 96-well micro-titer plates. For this purpose, exponentially growing cells were inoculated at a density of 10^5 cells/ml into wells containing LB medium in the presence of two-fold increasing concentrations of drugs under investigation at constant inducer concentration of 0.1% arabinose for E. coli or 0.1 mM IPTG for P. aeruginosa strains. Cell growth was determined visually or using Spark 10M microplate reader (Tecan) after incubation of the micro-titer plates at 37° C. for 16 h.
(§4) For this purpose, induced cells were dispensed into 96-well microplates with LB medium containing two-fold dilutions of an antibiotic of interest and a respective concentration of an inducer.

[2] = test system: P. aeruginosa PAO1-Pore (GKCW115, FhuAΔC/Δ4L pore); test: MIC, two-fold broth dilution, P. aeruginosa PAO1-Pore; settings: P. aeruginosa PAO1-Pore; 0.1 mM IPTG; LB, 37° C., 16 h
Procedure: as §3, §4

[3] = test system: E. coli GD102 (ΔTolC); settings: E. coli ΔTolC without pore; 0.1% arabinose; LB, 37° C., 16 h
Procedure: as §3, §4

[4] = test system: P. aeruginosa PAO1Δ3 (Δ3); settings: P. aeruginosa Δ3 without pore; 0.1 mM IPTG; LB, 37° C., 16 h
Procedure: as §3, §4

[5] = test system: E. coli ΔTolC-Pore (GKCW103, FhuAΔC/Δ4L pore); settings: 0.1% arabinose, LB, 37° C., 16 h
Procedure: as §3, §4

[6] = test system: E. coli WT-Pore (GKCW101, FhuAΔC/Δ4L pore); settings: 0.1% arabinose, LB, 37° C., 16 h
Procedure: as §3, §4

[7] = test system: E. coli BW 25113 (WT); settings: E. coli WT without pore; 0.1% arabinose; LB, 37° C., 16 h
Procedure: as §3, §4

[8] = test system: P. aeruginosa PAO1, PAO1-Pore, Δ3, Δ3-Pore; test: Fold MIC change between P. aeruginosa strains (OM barrier, efflux); type: cell-based, Pseudomonas aeruginosa; settings: for Fold MIC change, Efflux, PAO1-Pore/Δ3-Pore / Fold MIC change, Efflux, PAO1/Δ3 / Fold MIC change, OM barrier, PAO1/PAO1-Pore / Fold MIC change, OM barrier, Δ3/Δ3-Pore: P. aeruginosa
[9] = test system: P. aeruginosa PAO1; settings: P. aeruginosa PAO1 without pore; 0.1 mM IPTG; LB, 37° C., 16 h
Procedure: as §3, §4

[10] = test system: E. coli WT, WT-Pore, ΔTolC, ΔTolC-Pore; type: cell-based, Escherichia coli; settings: E. coli
[11] = test system: E. coli WT-Pore (GKCW101, FhuAΔC/Δ4L pore); test: microbe, parasite or virus in culture; settings: Escherichia coli, 16 h, read-out: MIC BW 25113 (WT) Pore
Procedure: as §3, §4

[12] = test system: P. aeruginosa PAO1, PAO1-Pore, Δ3, Δ3-Pore cells; test: Azithromycin uptake into P. aeruginosa cells by LC-MS; settings: 5 μM; 0.1 mM IPTG; LC-MS (FIG. 5C)
Procedure: For LC-MS analyses, P. aeruginosa cells were grown to stationary phase in 50 mM MOPS (pH 7.2) M9 minimal medium supplemented with 1% glycerol and trace ions at 37° C. Stationary phase cells were subcultured 1:100 for 16 hours in the same fresh medium at 37° C. After 16 hours, cultures were induced with 0.1 mM IPTG for 4 hours at 37° C. Cells were collected by centrifugation at room temperature and resuspended in PMG buffer at one-tenth the original culture volume. […] At appropriate time points, 100 μl of cells were removed and collected onto filter plates using a HTS Vacuum Manifold (EMD Millipore). Filters were dried overnight and extracted in a two-step process using 1) 800 μl of 100% HPLC grade methanol and 2) 200 μl of 80% HPLC methanol: 20% ultrapure water. […] For HPLC, two mobile phases (A—100% water, B—100% acetonitrile; both with 0.1% formic acid) were used with a step gradient of 20, 50 and 100% of B for 1, 4, and 11 min, respectively.

[13] = test system: E. coli BW 25113 (WT); test: microbe, parasite or virus in culture; settings: Escherichia coli, 16 h, read-out: MIC BW 25113 (WT) —
Procedure: as §3, §4

[14] = test system: P. aeruginosa PAO1; test: microbe, parasite or virus in culture; settings: Pseudomonas aeruginosa
Procedure: as §3, §4

[15] = test system: E. coli WT-Pore; test: Vancomycin disc susceptibility assay, E. coli WT-Pore; type: cell-based; settings: Escherichia coli, read-out: Zone of clearance, E. coli WT-Pore, 100 μg vancomycin disc
Procedure: (§1) Vancomycin susceptibility spot assay. Indicated E. coli (A) and P. aeruginosa (B) strains were seeded onto LB agar plates, ˜10^8 cells per plate, with and without inducers 0.1% arabinose and 0.1 mM IPTG, respectively. […] Seeded plates were incubated overnight at 37° C. Large clearance zones can be clearly seen in the presence of inducers.

[16] = test system: P. aeruginosa PAO1; test: Vancomycin disc susceptibility assay, P. aeruginosa PAO1; type: cell-based; settings: Pseudomonas aeruginosa, 200 μg vancomycin disc, read-out: Zone of clearance
Procedure: (§2) Vancomycin susceptibility spot assay. […] […] Seeded plates were incubated overnight at 37° C. Large clearance zones can be clearly seen in the presence of inducers.

[17] = test system: E. coli ΔTolC-Pore; test: Vancomycin disc susceptibility assay, E. coli ΔTolC-Pore; type: cell-based; settings: Escherichia coli, read-out: Zone of clearance, E. coli ΔTolC-Pore, 100 μg vancomycin disc
Procedure: as §2

[18] = test system: E. coli ΔTolC; test: Vancomycin disc susceptibility assay, E. coli ΔTolC; type: cell-based; settings: Escherichia coli, read-out: Zone of clearance, E. coli ΔTolC, 100 μg vancomycin disc
Procedure: as §1

[19] = test system: P. aeruginosa Δ3; test: Vancomycin disc susceptibility assay, P. aeruginosa Δ3; type: cell-based; settings: Pseudomonas aeruginosa, 200 μg vancomycin disc, read-out: Zone of clearance
Procedure: as §1

[20] = test system: E. coli WT; test: Vancomycin disc susceptibility assay, E. coli WT; type: cell-based; settings: Escherichia coli, 100 μg vancomycin disc, read-out: Zone of clearance
Procedure: as §1

[21] = test system: P. aeruginosa Δ3-Pore; test: Vancomycin disc susceptibility assay, P. aeruginosa Δ3-Pore; type: cell-based; settings: Pseudomonas aeruginosa, 200 μg vancomycin disc, read-out: Zone of clearance
Procedure: as §1

[22] = test system: P. aeruginosa PAO1-Pore; test: Vancomycin disc susceptibility assay, P. aeruginosa PAO1-Pore; type: cell-based; settings: Pseudomonas aeruginosa, 200 μg vancomycin disc, read-out: Zone of clearance
Procedure: as §1

[23] = PAO1, 16 h, read-out: MIC PAO1 —

Coumermycin
MIC Δ3 Pore [1]: 1 µg/mL | MIC PAO1 Pore [2]: 1 µg/mL | MIC GD102 (ΔTolC) — [3]: 8 µg/mL | MIC Δ3 — [4]: 16 µg/mL | MIC GD102 (ΔTolC) Pore [5]: 0.5 µg/mL | MIC BW 25113 (WT) Pore [6]: 2 µg/mL | MIC BW 25113 (WT) — [7]: 8 µg/mL | Fold MIC change, Efflux, PAO1-Pore/Δ3-Pore [8]: 1 fold | Fold MIC change, Efflux, PAO1/Δ3 [8]: 1 fold | Fold MIC change, OM barrier, PAO1/PAO1-Pore [8]: 16 fold | Fold MIC change, OM barrier, Δ3/Δ3-Pore [8]: 16 fold | MIC PAO1 — [9]: 16 µg/mL | Fold MIC change, Efflux, WT-Pore/ΔTolC-Pore [10]: 4 fold | Fold MIC change, Efflux, WT/ΔTolC [10]: 1 fold | Fold MIC change, OM barrier, WT/WT-Pore [10]: 4 fold | Fold MIC change, OM barrier, ΔTolC/ΔTolC-Pore [10]: 16 fold

CC[C@H]1OC(=O)[C@H](C)[C@@H](O[C@H]2C[C@@](C)(OC)[C@@H](O)[C@H](C)O2)[C@H](C)[C@@H](O[C@@H]2O[C@H](C)C[C@H](N(C)C)[C@H]2O)[C@](C)(O)C[C@@H](C)CN(C)[C@H](C)[C@@H](O)[C@]1(C)O [Azithromycin]
MIC [11]: 0.5 µg/mL (≈ 0.668 µM) | MIC Δ3 Pore [1]: 0.063 µg/mL (≈ 0.0841 µM) | MIC in P. aeruginosa Δ3-Pore cells ([1]; induced, plateau with increasing IPTG (FIG. 5)): 0.083 µM (≈ 0.0622 µg/mL) | MIC GD102 (ΔTolC) — [3]: 0.5 µg/mL (≈ 0.668 µM) | Accumulation of azithromycin in permeabilized PAO1-Pore and Δ3-Pore cells [12]: significantly higher than PAO1 and Δ3 cells | MIC Δ3 — [4]: 4 µg/mL (≈ 5.34 µM) | MIC [13]: 2 µg/mL (≈ 2.67 µM) | MIC GD102 (ΔTolC) Pore [5]: 0.031 µg/mL (≈ 0.0414 µM) | Decrease of MIC from PAO1 cells to induced Δ3-Pore cells ([8]; FIG. 5B): more than 2000 fold | Drop in MIC in PAO1-Pore cells with increasing inducer ([8]; IPTG (FIG. 5)): 32 fold | Drop in MIC in Δ3-Pore cells with increasing inducer ([8]; IPTG (FIG. 5)): 64 fold | Fold MIC change, Efflux, PAO1-Pore/Δ3-Pore [8]: 64 fold | Fold MIC change, Efflux, PAO1/Δ3 [8]: 32 fold | Fold MIC change, OM barrier, PAO1/PAO1-Pore [8]: 32 fold | Fold MIC change, OM barrier, Δ3/Δ3-Pore [8]: 64 fold | Fold MIC change, Efflux, WT-Pore/ΔTolC-Pore [10]: 16 fold | Fold MIC change, Efflux, WT/ΔTolC [10]: 4 fold | Fold MIC change, OM barrier, WT/WT-Pore [10]: 4 fold | Fold MIC change, OM barrier, ΔTolC/ΔTolC-Pore [10]: 16 fold | MIC [14, 23]: 128 µg/mL | MIC ([14]; PAO1, read-out: MIC in P. aeruginosa PAO1 cells): 171 µM

CN[C@H](CC(C)C)C(=O)N[C@H]1C(=O)N[C@@H](CC(N)=O)C(=O)N[C@H]2C(=O)N[C@H]3C(=O)N[C@H](C(=O)N[C@H](C(=O)O)c4cc(O)cc(O)c4-c4cc3ccc4O)[C@H](O)c3ccc(c(Cl)c3)Oc3cc2cc(c3O[C@@H]2O[C@H](CO)[C@@H](O)[C@H](O)[C@H]2O[C@H]2C[C@](C)(N)[C@H](O)[C@H](C)O2)Oc2ccc(cc2Cl)[C@H]1O [Vancomycin]
MIC [11]: 8 µg/mL (≈ 5.52 µM) | MIC Δ3 Pore [1]: 64 µg/mL (≈ 44.2 µM) | zone of inhibition at 100 µg/disc ([15]; Arabinose (0.1%)): 16 mm | zone of inhibition at 100 µg/disc ([15]; IPTG (0.1 mM)): 11 mm | zone of inhibition at 100 µg/disc ([15]; No inducer): 8 mm | zone of inhibition at 200 µg/disc ([16]; Arabinose (0.1%)): 12 mm | zone of inhibition at 200 µg/disc ([16]; IPTG (0.1 mM)): 10 mm | zone of inhibition at 200 µg/disc ([16]; No inducer): 11 mm | MIC GD102 (ΔTolC) — [3]: 256 µg/mL (≈ 177 µM) | MIC Δ3 — [4]: 1024 µg/mL (≈ 707 µM) | zone of inhibition at 100 µg/disc ([17]; Arabinose (0.1%)): 15 mm | zone of inhibition at 100 µg/disc ([17]; IPTG (0.1 mM)): 16 mm | zone of inhibition at 100 µg/disc ([17]; No inducer): 7 mm | zone of inhibition at 100 µg/disc ([18]; Arabinose (0.1%)): 6 mm | zone of inhibition at 100 µg/disc ([18]; IPTG (0.1 mM)): 5 mm | zone of inhibition at 100 µg/disc ([18]; No inducer): 5 mm | MIC [13]: 128 µg/mL (≈ 88.3 µM) | zone of inhibition at 200 µg/disc ([19]; Arabinose (0.1%)): 12 mm | zone of inhibition at 200 µg/disc ([19]; IPTG (0.1 mM)): 9 mm | zone of inhibition at 200 µg/disc ([19]; No inducer): 10 mm | zone of inhibition at 100 µg/disc ([20]; Arabinose (0.1%)): 6 mm | zone of inhibition at 100 µg/disc ([20]; IPTG (0.1 mM)): 6 mm | zone of inhibition at 100 µg/disc ([20]; No inducer): 5 mm | zone of inhibition at 200 µg/disc ([21]; Arabinose (0.1%)): 22 mm | zone of inhibition at 200 µg/disc ([21]; IPTG (0.1 mM)): 18 mm | zone of inhibition at 200 µg/disc ([21]; No inducer): 12 mm | MIC GD102 (ΔTolC) Pore [5]: 4 µg/mL (≈ 2.76 µM) | Fold MIC change, Efflux, PAO1-Pore/Δ3-Pore [8]: 2 fold | Fold MIC change, Efflux, PAO1/Δ3 [8]: 2 fold | Fold MIC change, OM barrier, PAO1/PAO1-Pore [8]: 16 fold | Fold MIC change, OM barrier, Δ3/Δ3-Pore [8]: 16 fold | Fold MIC change, Efflux, WT-Pore/ΔTolC-Pore [10]: 2 fold | Fold MIC change, Efflux, WT/ΔTolC [10]: 0.5 fold | Fold MIC change, OM barrier, WT/WT-Pore [10]: 16 fold | Fold MIC change, OM barrier, ΔTolC/ΔTolC-Pore [10]: 64 fold | zone of inhibition at 200 µg/disc ([22]; Arabinose (0.1%)): 21 mm | zone of inhibition at 200 µg/disc ([22]; IPTG (0.1 mM)): 19 mm | MIC [14, 23]: 2050 µg/mL

Gentamicin
MIC GD102 (ΔTolC) — [3]: 4 µg/mL | MIC GD102 (ΔTolC) Pore [5]: 4 µg/mL | MIC BW 25113 (WT) Pore [6]: 2 µg/mL | MIC BW 25113 (WT) — [7]: 4 µg/mL | Fold MIC change, Efflux, WT-Pore/ΔTolC-Pore [10]: 0.5 fold | Fold MIC change, Efflux, WT/ΔTolC [10]: 1 fold | Fold MIC change, OM barrier, WT/WT-Pore [10]: 2 fold | Fold MIC change, OM barrier, ΔTolC/ΔTolC-Pore [10]: 1 fold
